Test results reported in patent US8129367B2, “Compounds for the treatment of Hepatitis C” (Bristol-Myers Squibb Company, priority 2007, dated 2012).

Key:
HCV NS5B = molecular target: T1, HCV NS5B (Hepatitis C virus genotype 1b, UniProt Q9WMX2); experiment: HCV NS5B RdRp enzyme assay; type: biochemical; settings: HCV NS5B RdRp genotype 1b enzyme
T1 construct: The protein was expressed with an 18 amino acid C-terminal truncation to enhance the solubility; made in house; host or cells: E. coli BL21(DE3)
Method: HCV NS5B RdRp cloning, expression, and purification. The cDNA encoding the NS5B protein of HCV, genotype 1b, was cloned into the pET21a expression vector. The protein was expressed with an 18 amino acid C-terminal truncation to enhance the solubility. The E. coli competent cell line BL21(DE3) was used for expression of the protein. Cultures were grown at 37° C. for ˜4 hours until the cultures reached an optical density of 2.0 at 600 nm. The cultures were cooled to 20° C. and induced with 1 mM IPTG. Fresh ampicillin was added to a final concentration of 50 μg/ml and the cells were grown overnight at 20° C.
Cell pellets (3 L) were lysed for purification to yield 15-24 mgs of purified NS5B. The lysis buffer consisted of 20 mM Tris-HCl, pH 7.4, 500 mM NaCl, 0.5% triton X-100, 1 mM DTT, 1 mM EDTA, 20% glycerol, 0.5 mg/ml lysozyme, 10 mM MgCl2, 15 ug/ml deoxyribonuclease I, and Complete™ protease inhibitor tablets (Roche). After addition of the lysis buffer, frozen cell pellets were resuspended using a tissue homogenizer. To reduce the viscosity of the sample, aliquots of the lysate were sonicated on ice using a microtip attached to a Branson sonicator. The sonicated lysate was centrifuged at 100,000×g for 1 hr at 4° C. and filtered through a 0.2 μm filter unit (Corning).
The protein was purified using two sequential chromatography steps: Heparin sepharose CL-6B and polyU sepharose 4B (Pharmacia). The chromatography buffers were identical to the lysis buffer but contained no lysozyme, deoxyribonuclease I, MgCl2 or protease inhibitor and the NaCl concentration of the buffer was adjusted according to the requirements for charging the protein onto the column. Each column was eluted with a NaCl gradient which varied in length from 5-50 column volumes depending on the column type. After the final chromatography step, the resulting purity of the enzyme is >90% based on SDS-PAGE analysis. The enzyme was aliquoted and stored at −80° C.
Standard HCV NS5B RdRp enzyme assay. HCV RdRp genotype 1b assays were run in a final volume of 60 μl in 96 well plates (Corning 3600). The assay buffer is composed of 20 mM Hepes, pH 7.5, 2.5 mM KCl, 2.5 mM MgCl2, 1 mM DTT, 1.6 U RNAse inhibitor (Promega N2515), 0.01 mg/ml BSA (Sigma B6917), and 2% glycerol. All compounds were serially diluted (3-fold) in DMSO and diluted further in water such that the final concentration of DMSO in the assay was 2%. HCV RdRp genotype 1b enzyme was used at a final concentration of 28 nM. A polyA template was used at 6 nM, and a biotinylated oligo-dT12 primer was used at 180 nM final concentration. Template was obtained commercially (Amersham 27-4110). Biotinylated primer was prepared by Sigma Genosys. 3H-UTP was used at 0.6 μCi (0.29 μM total UTP). Reactions were initiated by the addition of enzyme, incubated at 30° C. for 60 min, and stopped by adding 25 μl of 50 mM EDTA containing SPA beads (4 μg/μl, Amersham RPNQ 0007). Plates were read on a Packard Top Count NXT after >1 hr incubation at room temperature.
Modified HCV NS5B RdRp enzyme assay. A modified enzyme assay was performed essentially as described for the standard enzyme assay except for the following: The biotinylated oligo dT12 primer was precaptured on streptavidin-coated SPA beads by mixing primer and beads in assay buffer and incubating at room temperature for one hour. Unbound primer was removed after centrifugation. The primer-bound beads were resuspended in 20 mM Hepes buffer, pH 7.5 and used in the assay at final concentrations of 20 nM primer and 0.67 μg/μl beads. Order of addition in the assay: enzyme (1.75 nM) was added to diluted compound followed by the addition of a mixture of template (0.36 nM), 3H-UTP (0.6 μCi, 0.29 μM), and primer-bound beads, to initiate the reaction; concentrations given are final. Reactions were allowed to proceed for 4 hours at 30° C.
IC50 values for compounds were determined using seven different [I]. […]

HCV replicon cells = experiment: HCV replicon FRET / luciferase assay; type: cell-based; settings: Hepatitis C virus; 50% reduction in FRET or luciferase activity in HCV replicon cells
Method: FRET Assay Preparation. The HCV FRET screening assay was performed in 96-well cell culture plates. The FRET peptide (Anaspec, Inc.) (Taliani et al., Anal. Biochem. 1996, 240, 60-67) contains a fluorescence donor, EDANS, near one end of the peptide and an acceptor, DABCYL, near the other end. The fluorescence of the peptide is quenched by […] resonance energy transfer (RET) between the donor and the acceptor, but as the NS3 protease cleaves the peptide the products are released from RET quenching and the fluorescence of the donor becomes apparent. The assay reagent was made as follows: 5× cell Luciferase cell culture lysis reagent from Promega (#E153A) diluted to 1× with dH2O, NaCl added to 150 mM final, the FRET peptide diluted to 20 μM final from a 2 mM stock.
To prepare plates, HCV replicon cells, with or without a Renilla luciferase reporter gene, were trypsinized and plated in a 96-well plate with titrated test compounds added in columns 3 through 12; columns 1 and 2 contained a control compound (HCV control inhibitor), and the bottom row contained cells with DMSO only. The plates were then placed in a CO2 incubator at 37° C.
Assays. Subsequent to addition of the test compounds described above (FRET Assay Preparation), at various times the plate was removed and Alamar blue solution (Trek Diagnostics, #00-100) was added to measure cellular toxicity. After reading in a Cytoflour 4000 instrument (PE Biosystems), plates were rinsed with PBS and then used for FRET assay by the addition of 30 ul of the FRET peptide assay reagent described above (FRET Assay Preparation) per well. The plate was then placed into the Cytoflour 4000 instrument which had been set to 340 excite/490 emission, automatic mode for up to 20 cycles and the plate read in a kinetic mode. Typically, the signal to noise using an endpoint analysis after the reads was at least three-fold. Alternatively, after Alamar blue reading, plates were rinsed with PBS, then used for luciferase assay using the Promega Dual-Glo Luciferase Assay System or the Promega EnduRen Live Cell Substrate assay.
Compound analysis was performed by quantification of the relative HCV replicon inhibition and the relative cytotoxicity values. To calculate cytoxicity values, the average Alamar Blue fluorescence signals from the control wells were set as 100% non-toxic. The individual signals in each of the compound test wells were then divided by the average control signal and multiplied by 100% to determine […]. To calculate the HCV replicon inhibition values, an average background value was obtained from the two wells containing the highest amount of HCV control inhibitor at the end of the assay period. These numbers were similar to those obtained from naïve Huh-7 cells. The background numbers were then subtracted from the average signal obtained from the control wells and this number was used as 100% activity. The individual signals in each of the compound test wells were then divided by the averaged control values after background subtraction and multiplied by 100% to determine percent activity. EC50 values were calculated as the concentration which caused a 50% reduction in FRET or luciferase activity. The two numbers generated for the compound plate, percent cytoxicity and percent activity, were used to determine compounds of interest for further analysis.

T1 sequence (Q9WMX2 2420-2992): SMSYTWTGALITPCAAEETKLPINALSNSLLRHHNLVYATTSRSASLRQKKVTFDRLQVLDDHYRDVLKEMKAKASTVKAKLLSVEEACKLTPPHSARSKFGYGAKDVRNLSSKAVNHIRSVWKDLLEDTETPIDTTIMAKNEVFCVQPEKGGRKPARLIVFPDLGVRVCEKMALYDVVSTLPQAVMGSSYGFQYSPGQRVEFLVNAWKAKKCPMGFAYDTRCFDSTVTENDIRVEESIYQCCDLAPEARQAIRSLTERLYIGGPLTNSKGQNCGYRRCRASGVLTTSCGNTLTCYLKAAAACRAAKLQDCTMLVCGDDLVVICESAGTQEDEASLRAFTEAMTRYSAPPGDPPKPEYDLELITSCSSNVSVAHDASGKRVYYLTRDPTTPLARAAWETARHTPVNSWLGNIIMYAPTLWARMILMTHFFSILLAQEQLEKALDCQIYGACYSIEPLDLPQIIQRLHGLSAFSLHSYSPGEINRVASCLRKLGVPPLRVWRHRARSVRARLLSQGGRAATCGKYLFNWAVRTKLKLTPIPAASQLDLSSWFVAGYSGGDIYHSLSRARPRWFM

Q: Which results are given for `COc1ccc2c(c1)C1CC1(C(=O)N1C3CCC1CN(C)C3)Cn1c-2c(C2CCCCC2)c2ccc(C(=O)NS(=O)(=O)c3cccs3)cc21` (stereo not shown)?
A: IC50 (HCV NS5B): 4.2 to 500 nM; EC50 (HCV replicon cells): 4.2 to 500 nM

Q: Which IC50 (HCV NS5B) does the source give for `COc1ccc2c(c1)C1CC1(C(=O)N1C3CCC1CN(C)C3)Cn1c-2c(C2CCCCC2)c2ccc(C(=O)NS(=O)(=O)c3nc[nH]n3)cc21` (stereo not shown) here?
A: The IC50 was 4.2 to 500 nM.

Q: What about the EC50 (HCV replicon cells) of the same compound?
A: Its EC50 is 4.2 to 500 nM.

Q: For `C=CS(=O)(=O)NC(=O)c1ccc2c(C3CCCCC3)c3n(c2c1)CC1(C(=O)N2C4CCC2CN(C)C4)CC1c1cc(OC)ccc1-3` (stereo not shown), which IC50 (HCV NS5B) is on record?
A: Its IC50 is 4.2 to 500 nM.

Q: And the EC50 (HCV replicon cells)?
A: The EC50 was 4.2 to 500 nM.

Q: With `COc1ccc2c(c1)C1CC1(C(=O)N1C3CCC1CN(C)C3)Cn1c-2c(C2CCCCC2)c2ccc(C(=O)NS(=O)(=O)C3(C)CC3)cc21` (stereo not shown) as the compound, how does the IC50 (HCV NS5B) read?
A: Its IC50 is 4.2 to 500 nM.

Q: And the EC50 (HCV replicon cells)?
A: The EC50 was 4.2 to 500 nM.

Q: How did the IC50 (HCV NS5B) turn out when `COc1ccc2c(c1)C1CC1(C(=O)N1C3CCC1CN(C)C3)Cn1c-2c(C2CCCCC2)c2ccc(C(=O)NS(=O)(=O)C3(C(=O)Nc4ccccc4)CC3)cc21` (stereo not shown) was run?
A: Its IC50 is 4.2 to 500 nM.

Q: And the EC50 (HCV replicon cells)?
A: Its EC50 is 4.2 to 500 nM.

Q: `COc1ccc2c(c1)C1CC1(C(=O)N1C3CCC1CN(C)C3)Cn1c-2c(C2CCCCC2)c2ccc(C(=O)NS(=O)(=O)c3nc(C)cc(C)n3)cc21` (stereo not shown) was tested. Which IC50 (HCV NS5B) did it give?
A: Its IC50 is 4.2 to 500 nM.

Q: And the EC50 (HCV replicon cells)?
A: Its EC50 is 4.2 to 500 nM.

Q: Which IC50 (HCV NS5B) does the source give for `COc1ccc2c(c1)C1CC1(C(=O)N1C3CCC1CN(C)C3)Cn1c-2c(C2CCCCC2)c2ccc(C(=O)NS(=O)(=O)c3c(C)noc3C)cc21` (stereo not shown) here?
A: The IC50 was 4.2 to 500 nM.

Q: What about the EC50 (HCV replicon cells) of the same compound?
A: The EC50 was 4.2 to 500 nM.

Q: How did the IC50 (HCV NS5B) turn out when `COc1ccc2c(c1)C1CC1(C(=O)N1C3CCC1CN(C)C3)Cn1c-2c(C2CCCCC2)c2ccc(C(=O)NS(=O)(=O)c3nc(C(C)(C)C)cs3)cc21` (stereo not shown) was run?
A: Its IC50 is 4.2 to 500 nM.

Q: What about the EC50 (HCV replicon cells) of the same compound?
A: The EC50 was 4.2 to 500 nM.

Q: How did the IC50 (HCV NS5B) turn out when `COc1ccc2c(c1)C1CC1(C(=O)N1C3CCC1CN(C)C3)Cn1c-2c(C2CCCCC2)c2ccc(C(=O)NS(=O)(=O)c3ccccc3)cc21` (stereo not shown) was run?
A: The IC50 was 4.2 to 500 nM.

Q: What about the EC50 (HCV replicon cells) of the same compound?
A: Its EC50 is 4.2 to 500 nM.

Q: Which IC50 (HCV NS5B) does the source give for `C=CCC1(S(=O)(=O)NC(=O)c2ccc3c(C4CCCCC4)c4n(c3c2)CC2(C(=O)N3C5CCC3CN(C)C5)CC2c2cc(OC)ccc2-4)CC1` (stereo not shown) here?
A: Its IC50 is 4.2 to 500 nM.

Q: And the EC50 (HCV replicon cells)?
A: The EC50 was 4.2 to 500 nM.

Q: With `COc1ccc2c(c1)C1CC1(C(=O)N1C3CCC1CN(C)C3)Cn1c-2c(C2CCCCC2)c2ccc(C(=O)NS(=O)(=O)C3(Cc4ccccc4)CC3)cc21` (stereo not shown) as the compound, how does the IC50 (HCV NS5B) read?
A: Its IC50 is 4.2 to 500 nM.

Q: What about the EC50 (HCV replicon cells) of the same compound?
A: Its EC50 is 4.2 to 500 nM.
